One compound from ChEMBL document CHEMBL1255472, “Population pharmacokinetics of micafungin in neonates and young infants” (Antimicrob Agents Chemother, 2010) can be followed below.

A short description of series [1]: AUC (0 to 24 hrs) in candidiasis patient at 8 mg/kg, iv by HPLC. On the set-up: time < 24 hr, dose 8 mg/kg, route intravenous. The series is classed as ADME, organism-based. The following applies: human, plasma.
A short description of series [2]: Dose normalized clearance in iv dosed adult human by HPLC. Type of series: ADME, organism-based. The settings on record: in vivo.
For the next series, the system named is Candida albicans. In words: Antifungal activity against Candida albicans. Type of series: functional.
A short description of series [3]: Volume of distribution in iv dosed adult human by HPLC. The series is classed as ADME, organism-based. The settings on record: in vivo.
Series [4] in a line: Volume of distribution in iv dosed human infant by HPLC. The series is classed as ADME, organism-based. The following applies: in vivo.
The nature of series [5]: Ratio of AUC in neonates with Candida albican infection to MIC for Candida albicans. The series is classed as functional.
A short description of series [6]: AUC (0 to 24 hrs) in candidiasis patient at 10 mg/kg, iv by HPLC. The following applies: human, plasma. Also noted: time < 24 hr, dose 10 mg/kg, route intravenous. Type of series: ADME, organism-based.
Series [7] can be described thus: AUC (0 to 24 hrs) in candidiasis patient at 12 mg/kg, iv by HPLC. The series is classed as ADME, organism-based. Also noted: time < 24 hr, dose 12 mg/kg, route intravenous. The settings on record: human, plasma.

In brackets after ≈: the same amount, converted by molar mass. Starred links: 1 amine or outer side, 2 acyl side, 3 side chain; linkers in the order of their positions; H or OH if unused. Positions of bridges follow the written chain, without caps; N, C: chain ends. Non-standard residues stand in square brackets, D forms with d. Residues, ends and D or L forms follow the SMILES beside them. *: point of attachment. hTyr(3S-OH,4S-OH,3'-OSO3H) = N[C@H](C(=O)O)[C@H](O)[C@@H](O)c1ccc(O)c(OS(=O)(=O)O)c1; Orn(4R-OH,5R-OH) = O=C([C@H](C[C@@H](O)[C@@H](O)N[*:3])N[*:1])[*:2]; Pro(3S-OH,4S-Me) = C[C@H]1CN[C@H](C(=O)O)[C@H]1O; X1 = CCCCCOc1ccc(-c2cc(-c3ccc(C(=O)*)cc3)no2)cc1; Gln(3R-OH) = NC(=O)C[C@@H](O)[C@H](N)C(=O)O; Hyp = O=C(O)[C@@H]1C[C@@H](O)CN1 Bounds are passed on as bounds.

As for `CCCCCOc1ccc(-c2cc(-c3ccc(C(=O)N[C@H]4C[C@@H](O)[C@@H](O)NC(=O)[C@@H]5[C@@H](O)[C@@H](C)CN5C(=O)[C@H]([C@H](O)CC(N)=O)NC(=O)[C@H]([C@H](O)[C@@H](O)c5ccc(O)c(OS(=O)(=O)O)c5)NC(=O)[C@@H]5C[C@@H](O)CN5C(=O)[C@H]([C@@H](C)O)NC4=O)cc3)no2)cc1` [MICAFUNGIN] (X1-[Orn(4R-OH,5R-OH)]T[Hyp][hTyr(3S-OH,4S-OH,3'-OSO3H)][Gln(3R-OH)][Pro(3S-OH,4S-Me)]; lactam 1-C), the AUC(0-t) at 24 h in series [1], in series [6] and in series [7] was below 166 µg·h/mL throughout. The compound also showed a clearance in series [2] of 19.5 mL/min. In addition, the MIC against Candida albicans was 0.125 mg/L (≈ 0.0984 µM). For the same compound, the Vd in series [3] worked out at 10.4 L; in series [4], 10.3 L. Besides, the Ratio in series [5] amounted to 1330.
